According to ChEMBL document CHEMBL4765227, “Hit to lead optimization of a series of N-[4-(1,3-benzothiazol-2-yl)phenyl]acetamides as monoacylglycerol lipase inhibitors with potential anticancer activity” (Eur J Med Chem, 2016):

Key:
Type in all cases: functional
Conditions in all cases: read-out: GI
CCRF-CEM = assay: Growth inhibition of human CCRF-CEM cells at 10 uM incubated for 48 hrs by sulforhodamine B assay relative to control
HL-60(TB) = assay: Growth inhibition of human HL-60(TB) cells at 10 uM incubated for 48 hrs by sulforhodamine B assay relative to control
RPMI-8226 = assay: Growth inhibition of human RPMI-8226 cells at 10 uM incubated for 48 hrs by sulforhodamine B assay relative to control
SR = assay: Growth inhibition of human SR cells at 10 uM incubated for 48 hrs by sulforhodamine B assay relative to control
A549 = assay: Growth inhibition of human A549/ATCC cells at 10 uM incubated for 48 hrs by sulforhodamine B assay relative to control
HOP-92 = assay: Growth inhibition of human HOP-92 cells at 10 uM incubated for 48 hrs by sulforhodamine B assay relative to control
NCI-H226 = assay: Growth inhibition of human NCI-H226 cells at 10 uM incubated for 48 hrs by sulforhodamine B assay relative to control
NCI-H23 = assay: Growth inhibition of human NCI-H23 cells at 10 uM incubated for 48 hrs by sulforhodamine B assay relative to control
NCI-H322M = assay: Growth inhibition of human NCI-H322M cells at 10 uM incubated for 48 hrs by sulforhodamine B assay relative to control
NCI-H460 = assay: Growth inhibition of human NCI-H460 cells at 10 uM incubated for 48 hrs by sulforhodamine B assay relative to control
NCI-H522 = assay: Growth inhibition of human NCI-H522 cells at 10 uM incubated for 48 hrs by sulforhodamine B assay relative to control
COLO 205 = assay: Growth inhibition of human COLO 205 cells at 10 uM incubated for 48 hrs by sulforhodamine B assay relative to control
HCC 2998 = assay: Growth inhibition of human HCC 2998 cells at 10 uM incubated for 48 hrs by sulforhodamine B assay relative to control
HCT-116 = assay: Growth inhibition of human HCT-116 cells at 10 uM incubated for 48 hrs by sulforhodamine B assay relative to control
HCT-15 = assay: Growth inhibition of human HCT-15 cells at 10 uM incubated for 48 hrs by sulforhodamine B assay relative to control
HT-29 = assay: Growth inhibition of human HT-29 cells at 10 uM incubated for 48 hrs by sulforhodamine B assay relative to control
KM12 = assay: Growth inhibition of human KM12 cells at 10 uM incubated for 48 hrs by sulforhodamine B assay relative to control
SW-620 = assay: Growth inhibition of human SW-620 cells at 10 uM incubated for 48 hrs by sulforhodamine B assay relative to control
SF-268 = assay: Growth inhibition of human SF-268 cells at 10 uM incubated for 48 hrs by sulforhodamine B assay relative to control
SF-295 = assay: Growth inhibition of human SF-295 cells at 10 uM incubated for 48 hrs by sulforhodamine B assay relative to control
SF-539 = assay: Growth inhibition of human SF-539 cells at 10 uM incubated for 48 hrs by sulforhodamine B assay relative to control
SNB-19 = assay: Growth inhibition of human SNB-19 cells at 10 uM incubated for 48 hrs by sulforhodamine B assay relative to control
U-251 = assay: Growth inhibition of human U-251 cells at 10 uM incubated for 48 hrs by sulforhodamine B assay relative to control
LOX IMVI = assay: Growth inhibition of human LOX IMVI cells at 10 uM incubated for 48 hrs by sulforhodamine B assay relative to control
M14 = assay: Growth inhibition of human M14 cells at 10 uM incubated for 48 hrs by sulforhodamine B assay relative to control
MDA-MB-435 = assay: Growth inhibition of human MDA-MB-435 cells at 10 uM incubated for 48 hrs by sulforhodamine B assay relative to control
SK-MEL-5 = assay: Growth inhibition of human SK-MEL-5 cells at 10 uM incubated for 48 hrs by sulforhodamine B assay relative to control
UACC-257 = assay: Growth inhibition of human UACC-257 cells at 10 uM incubated for 48 hrs by sulforhodamine B assay relative to control
UACC-62 = assay: Growth inhibition of human UACC-62 cells at 10 uM incubated for 48 hrs by sulforhodamine B assay relative to control
OVCAR-4 = assay: Growth inhibition of human OVCAR-4 cells at 10 uM incubated for 48 hrs by sulforhodamine B assay relative to control
OVCAR-5 = assay: Growth inhibition of human OVCAR-5 cells at 10 uM incubated for 48 hrs by sulforhodamine B assay relative to control
OVCAR-8 = assay: Growth inhibition of human OVCAR-8 cells at 10 uM incubated for 48 hrs by sulforhodamine B assay relative to control
SK-OV-3 = assay: Growth inhibition of human SK-OV-3 cells at 10 uM incubated for 48 hrs by sulforhodamine B assay relative to control
ACHN = assay: Growth inhibition of human ACHN cells at 10 uM incubated for 48 hrs by sulforhodamine B assay relative to control
RXF 393 = assay: Growth inhibition of human RXF 393 cells at 10 uM incubated for 48 hrs by sulforhodamine B assay relative to control
SN12C = assay: Growth inhibition of human SN12C cells at 10 uM incubated for 48 hrs by sulforhodamine B assay relative to control
TK-10 = assay: Growth inhibition of human TK-10 cells at 10 uM incubated for 48 hrs by sulforhodamine B assay relative to control
UO-31 = assay: Growth inhibition of human UO-31 cells at 10 uM incubated for 48 hrs by sulforhodamine B assay relative to control
PC-3 = assay: Growth inhibition of human PC-3 cells at 10 uM incubated for 48 hrs by sulforhodamine B assay relative to control
DU-145 = assay: Growth inhibition of human DU-145 cells at 10 uM incubated for 48 hrs by sulforhodamine B assay relative to control
MDA-MB-231 = assay: Growth inhibition of human MDA-MB-231 cells at 10 uM incubated for 48 hrs by sulforhodamine B assay relative to control
Hs-578T = assay: Growth inhibition of human Hs-578T cells at 10 uM incubated for 48 hrs by sulforhodamine B assay relative to control
T47D = assay: Growth inhibition of human T47D cells at 10 uM incubated for 48 hrs by sulforhodamine B assay relative to control
MDA-MB-468 = assay: Growth inhibition of human MDA-MB-468 cells at 10 uM incubated for 48 hrs by sulforhodamine B assay relative to control

`O=C(CNCc1ccccc1)Nc1ccc(-c2nc3ccccc3s2)cc1` showed an inhibition of growth at 10 µM (CCRF-CEM) of 9.29%, an inhibition of growth at 10 µM (HL-60(TB)) of 3.9% and an inhibition of growth at 10 µM (RPMI-8226) of 10.1%. The inhibition of growth at 10 µM (SR) was 21.3%, the inhibition of growth at 10 µM (A549) was 22.7% and the inhibition of growth at 10 µM (HOP-92) was 15.1%. For the same molecule, the inhibition of growth at 10 µM (NCI-H226) was 15.8%, the inhibition of growth at 10 µM (NCI-H23) was 9.23% and the inhibition of growth at 10 µM (NCI-H322M) was 17.8%. The inhibition of growth at 10 µM (NCI-H460) was 3.57%, the inhibition of growth at 10 µM (NCI-H522) was 9.64% and the inhibition of growth at 10 µM (COLO 205) was -11.5%. For the same molecule, the inhibition of growth at 10 µM (HCC 2998) was 9.91%, the inhibition of growth at 10 µM (HCT-116) was 5.15% and the inhibition of growth at 10 µM (HCT-15) was 8.74%. For the same molecule, the inhibition of growth at 10 µM (HT-29) was 1.86%, the inhibition of growth at 10 µM (KM12) was 2.66% and the inhibition of growth at 10 µM (SW-620) was -1.34%. The inhibition of growth at 10 µM (SF-268) was 3.99%, the inhibition of growth at 10 µM (SF-295) was 6.24% and the inhibition of growth at 10 µM (SF-539) was 17.8%. It also gave an inhibition of growth at 10 µM (SNB-19) of 2.46%, an inhibition of growth at 10 µM (U-251) of 18.6% and an inhibition of growth at 10 µM (LOX IMVI) of 3.99%. It also gave an inhibition of growth at 10 µM (M14) of 3.6%, an inhibition of growth at 10 µM (MDA-MB-435) of 4.91% and an inhibition of growth at 10 µM (SK-MEL-5) of 5.63%. It also gave an inhibition of growth at 10 µM (UACC-257) of 4.97%, an inhibition of growth at 10 µM (UACC-62) of 7.61% and an inhibition of growth at 10 µM (OVCAR-4) of 2.46%. For the same molecule, the inhibition of growth at 10 µM (OVCAR-5) was 12.3%, the inhibition of growth at 10 µM (OVCAR-8) was -1.99% and the inhibition of growth at 10 µM (SK-OV-3) was -18.4%. It also gave an inhibition of growth at 10 µM (ACHN) of 0.1%, an inhibition of growth at 10 µM (RXF 393) of -3.76% and an inhibition of growth at 10 µM (SN12C) of 5.25%. For the same molecule, the inhibition of growth at 10 µM (TK-10) was -12%, the inhibition of growth at 10 µM (UO-31) was 20.5% and the inhibition of growth at 10 µM (PC-3) was 19.1%. For the same molecule, the inhibition of growth at 10 µM (DU-145) was -7.09%, the inhibition of growth at 10 µM (MDA-MB-231) was 16.9% and the inhibition of growth at 10 µM (Hs-578T) was -4.26%. The inhibition of growth at 10 µM (T47D) was 11.6% and the inhibition of growth at 10 µM (MDA-MB-468) was 73.3%.

For `O=C(CNc1ccccc1)Nc1ccc(-c2nc3ccccc3s2)cc1`, the inhibition of growth at 10 µM (CCRF-CEM) was 74.3%, the inhibition of growth at 10 µM (HL-60(TB)) was 11% and the inhibition of growth at 10 µM (RPMI-8226) was 12.5%. The inhibition of growth at 10 µM (SR) was 74.5%, the inhibition of growth at 10 µM (A549) was 9.72% and the inhibition of growth at 10 µM (HOP-92) was 3.37%. It also gave an inhibition of growth at 10 µM (NCI-H226) of 5.83%, an inhibition of growth at 10 µM (NCI-H23) of 11.9% and an inhibition of growth at 10 µM (NCI-H322M) of 12.9%. It also gave an inhibition of growth at 10 µM (NCI-H460) of 0.08%, an inhibition of growth at 10 µM (NCI-H522) of 26% and an inhibition of growth at 10 µM (COLO 205) of -11.2%. For the same molecule, the inhibition of growth at 10 µM (HCC 2998) was -16%, the inhibition of growth at 10 µM (HCT-116) was 29.7% and the inhibition of growth at 10 µM (HCT-15) was 29.6%. For the same molecule, the inhibition of growth at 10 µM (HT-29) was 2%, the inhibition of growth at 10 µM (KM12) was 5.48% and the inhibition of growth at 10 µM (SW-620) was -6.41%. For the same molecule, the inhibition of growth at 10 µM (SF-268) was 12.1%, the inhibition of growth at 10 µM (SF-295) was 7.06% and the inhibition of growth at 10 µM (SF-539) was 12%. For the same molecule, the inhibition of growth at 10 µM (SNB-19) was 8.22%, the inhibition of growth at 10 µM (U-251) was 14.8% and the inhibition of growth at 10 µM (LOX IMVI) was 55.4%. The inhibition of growth at 10 µM (M14) was 12.9%, the inhibition of growth at 10 µM (MDA-MB-435) was 12.6% and the inhibition of growth at 10 µM (SK-MEL-5) was 22%. It also gave an inhibition of growth at 10 µM (UACC-257) of -1.98%, an inhibition of growth at 10 µM (UACC-62) of 23.5% and an inhibition of growth at 10 µM (OVCAR-4) of 15.3%. For the same molecule, the inhibition of growth at 10 µM (OVCAR-5) was -10.9%, the inhibition of growth at 10 µM (OVCAR-8) was 9.58% and the inhibition of growth at 10 µM (SK-OV-3) was -24.1%. It also gave an inhibition of growth at 10 µM (ACHN) of -2.46%, an inhibition of growth at 10 µM (RXF 393) of 5.43% and an inhibition of growth at 10 µM (SN12C) of 8.85%. It also gave an inhibition of growth at 10 µM (TK-10) of -17.9%, an inhibition of growth at 10 µM (UO-31) of 30.2% and an inhibition of growth at 10 µM (PC-3) of 10.1%. The inhibition of growth at 10 µM (DU-145) was 3.91%, the inhibition of growth at 10 µM (MDA-MB-231) was -0.13% and the inhibition of growth at 10 µM (Hs-578T) was -8.46%. For the same molecule, the inhibition of growth at 10 µM (T47D) was 21.4% and the inhibition of growth at 10 µM (MDA-MB-468) was 29.5%.
